Measured values taken from publication PMC10257517 (European Journal of Medicinal Chemistry, 2023).

Columns and labels:
[1] = test system: SARS-CoV-2 (hCoV-19/Egypt/NRC-03/2020); assay type: cell-based; conditions: for Selectivity index (SI): SI=CC50/IC50
[2] = test system: VERO-E6 cells; test: MTT cytotoxicity assay; assay type: cell-based; conditions: MTT, 24 h
[3] = MTT cytotoxicity assay; assay type: cell-based; conditions: African green monkey, VERO-E6 cells
[4] = target: M^pro-SARS-CoV-2 (3CL Protease) (Severe acute respiratory syndrome coronavirus 2, UniProt P0DTD1); test: M^pro-SARS-CoV-2 inhibition, 3CL Protease; assay type: biochemical
[5] = test system: SARS-CoV-2; conditions: read-out: EC50 (Vero-E6 cell); against SARS-CoV-2, Vero-E6 cell; cited from earlier work

Question: What does the source list for “Diethyl (E)-[5''-(4-fluorobenzylidene)-4'-(4-fluorophenyl)-1′-methyl-2,4″-dioxodispiro[indoline-3,2′-pyrrolidine-3′,3″-piperidin]-1″-yl]phosphonate [Compound 6c]”?
Answer: IC50 [1]: 85.8 µM; CC50 [2]: 126 µM

Question: For “Diethyl (E)-[5-chloro-1′-methyl-2,4″-dioxo-4'-(thiophen-2-yl)-5''-(thiophen-2-ylmethylene)dispiro[indoline-3,2′-pyrrolidine-3′,3″-piperidin]-1″-yl]phosphonate [Compound 6l]”, which IC50 [1] is on record?
Answer: 578 µM

Question: What about the CC50 [2] of the same molecule?
Answer: 23.7 µM

Question: What does the source list for “Diethyl (E)-[1′-methyl-5''-(4-methylbenzylidene)-2,4″-dioxo-4'-(p-tolyl)dispiro[indoline-3,2′-pyrrolidine-3′,3″-piperidin]-1″-yl]phosphonate [Compound 6i]”?
Answer: IC50 [1]: 35.2 µM; CC50 [2]: 87 µM

Question: Which results are given for “Diethyl (E)-[5''-(4-methoxybenzylidene)-4'-(4-methoxyphenyl)-1′-methyl-2,4″-dioxodispiro[indoline-3,2′-pyrrolidine-3′,3″-piperidin]-1″-yl]phosphonate [Compound 6h]”?
Answer: IC50 [1]: 46.7 µM; CC50 [2]: 38.3 µM

Question: What does the source list for “Diethyl (E)-(5″-benzylidene-1′-methyl-2,4″-dioxo-4′-phenyldispiro[indoline-3,2′-pyrrolidine-3′,3″-piperidin]-1″-yl)phosphonate [Compound 6a]”?
Answer: IC50 [1]: 88.6 µM; CC50 [2]: 73.1 µM

Question: Which results are given for `CCOP(=O)(OCC)N1C/C(=C\c2ccc(F)cc2)C(=O)C2(C1)C(c1ccc(F)cc1)CN(C)C21C(=O)Nc2ccc(Cl)cc21` (stereo not shown) [Compound 6d, Diethyl (E)-[5-chloro-5''-(4-fluorobenzylidene)-4'-(4-fluorophenyl)-1′-methyl-2,4″-dioxodispiro[indoline-3,2′-pyrrolidine-3′,3″-piperidin]-1″-yl]phosphonate]?
Answer: Selectivity index (SI) [1]: 1.39; CC50 at 24 h [3]: 18.8 µM; IC50 [4]: 42.8 ± 2.53 µM

Question: Which IC50 [1] does the source give for “Diethyl (E)-[5''-(4-chlorobenzylidene)-4'-(4-chlorophenyl)-1′-methyl-2,4″-dioxodispiro[indoline-3,2′-pyrrolidine-3′,3″-piperidin]-1″-yl]phosphonate [Compound 6e]” here?
Answer: 340 µM

Question: What about the CC50 [2] of the same molecule?
Answer: 9.83 µM

Question: For `COc1cccc2[nH]c(C(=O)N[C@@H](CC(C)C)C(=O)N[C@@H](C[C@@H]3CCNC3=O)C(=O)CO)cc12` [PF-00835231], which EC50 [5] is on record?
Answer: ≤ 0.23 µM

Question: With “Diethyl (E)-[5-chloro-1′-methyl-5''-(4-methylbenzylidene)-2,4″-dioxo-4'-(p-tolyl)dispiro[indoline-3,2′-pyrrolidine-3′,3″-piperidin]-1″-yl]phosphonate [Compound 6j]” as the molecule, how does the IC50 [1] read?
Answer: 21.7 µM

Question: What about the CC50 [2] of the same molecule?
Answer: 40.1 µM

Question: For “Diethyl (E)-[1′-methyl-2,4″-dioxo-4'-(thiophen-2-yl)-5''-(thiophen-2-ylmethylene)dispiro[indoline-3,2′-pyrrolidine-3′,3″-piperidin]-1″-yl]phosphonate [Compound 6k]”, which IC50 [1] is on record?
Answer: 106 µM

Question: And the CC50 [2]?
Answer: 49.9 µM

Question: With `CCOP(=O)(OCC)N1C/C(=C\c2ccccc2)C(=O)C2(C1)C(c1ccccc1)CN(C)C21C(=O)Nc2ccc(Cl)cc21` (stereo not shown) [Compound 6b, Diethyl (E)-(5″-benzylidene-5-chloro-1′-methyl-2,4″-dioxo-4′-phenyldispiro[indoline-3,2′-pyrrolidine-3′,3″-piperidin]-1″-yl)phosphonate] as the molecule, how does the “Selectivity index (SI)” value [1] read?
Answer: 2.12

Question: What about the CC50 at 24 h [3] of the same molecule?
Answer: 22 µM

Question: What about the IC50 [4] of the same molecule?
Answer: 9.6 ± 0.66 µM

Question: For `CCOP(=O)(OCC)N1C/C(=C\c2ccc(Br)cc2)C(=O)C2(C1)C(c1ccc(Br)cc1)CN(C)C21C(=O)Nc2ccccc21` (stereo not shown) [Compound 6g, Diethyl (E)-[5''-(4-bromobenzylidene)-4'-(4-bromophenyl)-1′-methyl-2,4″-dioxodispiro[indoline-3,2′-pyrrolidine-3′,3″-piperidin]-1″-yl]phosphonate], which “Selectivity index (SI)” value [1] is on record?
Answer: 2.29

Question: And the CC50 at 24 h [3]?
Answer: 20.3 µM

Question: What about the IC50 [4] of the same molecule?
Answer: 15.6 ± 1.02 µM

Question: With “Diethyl (E)-[5-chloro-5''-(4-chlorobenzylidene)-4'-(4-chlorophenyl)-1′-methyl-2,4″-dioxodispiro[indoline-3,2′-pyrrolidine-3′,3″-piperidin]-1″-yl]phosphonate [Compound 6f]” as the molecule, how does the IC50 [1] read?
Answer: 7.26 µM

Question: What about the CC50 [2] of the same molecule?
Answer: 10 µM
